Article doi:10.1101/2023.11.21.567704v1 (biorxiv, 2023)

Columns and labels:
MtbFolB [1] = target: T1, MtbFolB (Mycobacterium tuberculosis, UniProt P9WNC5); assay: end-point fluorescence assay; format: biochemical
T1 sequence (P9WNC5 1-133): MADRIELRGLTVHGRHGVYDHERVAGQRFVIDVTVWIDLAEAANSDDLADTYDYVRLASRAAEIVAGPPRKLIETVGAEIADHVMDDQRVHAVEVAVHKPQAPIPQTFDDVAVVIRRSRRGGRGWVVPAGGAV

MtbFolB [2] = target: T1, MtbFolB; assay: biochemical; conditions: read-out: % inhibition
MtbFolB [3] = target: T1, MtbFolB; assay: biochemical
MtbFolB [4] = target: T1, MtbFolB; assay: primary screen, end-point fluorescence assay, 384-well, […] h; format: biochemical; conditions: 5 µM DHNP, 14 nM enzyme, pH 8.0, 24 °C, 1% DMSO

Structure (SMILES)	IC50 (MtbFolB [1]) [µM]	inhibition at 20 µM (MtbFolB [2]) [%]	further results
O=C(CCC(=O)c1ccc(-c2ccccc2)cc1)Nc1nncs1 [compound 2, 2]	8	–	–
O=C(CCC(=O)c1ccc(-c2ccccc2)cc1)Nc1nncs1 [compound 2]	–	53.2	–
Cc1cc(=O)n(-c2ccccc2)n1C(=O)Cc1cccs1 [compound 3, 3]	30.1	52.5	IC50 (MtbFolB [3]): 250 ± 30 µM
Cc1ccc(-n2c(=O)cc(C)n2C(=O)Cc2cccs2)cc1C [compound 9, 9]	–	40.8	IC50 (MtbFolB [3]): 434 ± 64 µM
O=C(Nc1nc2ccccc2n1Cc1ccc(F)cc1)C1CCC(F)(F)CC1 [compound 14, 14]	17.2	–	–
O=C(Nc1nc2ccccc2n1Cc1ccc(F)cc1)C1CCC(F)(F)CC1 [compound 14]	–	36.6	–
COc1ccc(CC(=O)n2c(C)cc(=O)n2-c2ccccc2)cc1 [compound 16, 16]	–	35.1	–
O=C1NCN(c2ccccc2)C12CCN(CC(O)COc1ccccc1C1CCCC1)CC2 (stereo not drawn) [compound 17, 17]	–	–	% inhibition at 20 μM (MtbFolB [4]): 32.9%
Cc1cc(=O)n(-c2ccccc2)n1C(=O)C(C)Oc1ccccc1 (stereo not drawn) [compound 20, 20]	23.1	29.9	IC50 (MtbFolB [3]): 362 ± 82 µM
Cc1cc(=O)n(-c2ccccc2)n1C(=O)c1ccc(Cl)cc1 [compound 21, 21]	34.4	29.8	–
Cc1ccc(-n2c(=O)cc(C)n2C(=O)C(C)Oc2ccccc2)cc1C (stereo not drawn) [compound 22, 22]	13.5	29.2	IC50 (MtbFolB [3]): 172 ± 14 µM
CN(C)c1ccc(NS(=O)(=O)c2ccc3ccn(C)c3c2)cc1 [compound 24, 24]	> 100	–	–
CN(C)c1ccc(NS(=O)(=O)c2cnn(C)c2)cc1 [compound 25, 25]	6.8	–	–
Cc1noc(C)c1S(=O)(=O)Nc1ccc(N(C)C)cc1 [compound 27, 27]	9.2	–	–
CN(C)c1ccc(NS(=O)(=O)c2ccc(-c3ccc(C(F)(F)F)cc3)cc2)cc1 [compound 29, 29]	> 100	–	–
O=S(=O)(Nc1ccc(N2CCCCC2)cc1)c1ccc(Br)s1 [compound 32, 32]	11.3	–	–
O=S(=O)(Nc1ccc(-n2ccnc2)cc1)c1ccc(Br)s1 [compound 33, 33]	> 100	–	–
CC(=O)Nc1ccc(NS(=O)(=O)c2ccc(Br)s2)cc1 [compound 34, 34]	> 100	–	–
CCc1cc(N2CCC[C@@H](O)C2)ccc1NS(=O)(=O)c1ccc(Br)s1 [compound 35, 35]	29.1	–	–
CC(C)c1ccc(C(C)NS(=O)(=O)c2ccc(Br)s2)cc1 (stereo not drawn) [compound 37, 37]	> 100	–	–
O=S(=O)(NCc1ccc(N2CCC(c3ccc(OC(F)(F)F)cc3)CC2)cc1)c1ccc(Br)s1 [compound 38, 38]	> 100	–	–
O=S(=O)(Nc1ccc(N2CCN(S(=O)(=O)c3ccc(Br)s3)CC2)cc1)c1ccc(Br)s1 [compound 39, 39]	10.6	–	–
